Test results as given in ChEMBL document CHEMBL3714742, “Pyrimido (4,5-b) indole derivatives” (2003).
Active and inactive are the calls of the source. No rule for the calls is given here.

How the values were obtained:
Mus musculus [1] = test: Inhibition of anti-CD3 antibody-induced IL2 production in Balb/c mouse dosed intravenously 5 mins before anti-CD3 antibody injection and measured 2 hrs post-challenge by ELISA; type: functional, organism-based
[2] = molecular target: T1, Dual specificity mitogen-activated protein kinase kinase 7 (Homo sapiens, UniProt O14733); test: Inhibition of GST-tagged human MKK7 expressed in Escherichia coli (BL21(DE3) pLysS) co-expressing human MEKK catalytic domain using biotinylated and GST-tagged rat GST-KN-SAPKalpha substrate incubated for 1 hr by time-resolved fluorescence based assay
T1 sequence (O14733 whole entry): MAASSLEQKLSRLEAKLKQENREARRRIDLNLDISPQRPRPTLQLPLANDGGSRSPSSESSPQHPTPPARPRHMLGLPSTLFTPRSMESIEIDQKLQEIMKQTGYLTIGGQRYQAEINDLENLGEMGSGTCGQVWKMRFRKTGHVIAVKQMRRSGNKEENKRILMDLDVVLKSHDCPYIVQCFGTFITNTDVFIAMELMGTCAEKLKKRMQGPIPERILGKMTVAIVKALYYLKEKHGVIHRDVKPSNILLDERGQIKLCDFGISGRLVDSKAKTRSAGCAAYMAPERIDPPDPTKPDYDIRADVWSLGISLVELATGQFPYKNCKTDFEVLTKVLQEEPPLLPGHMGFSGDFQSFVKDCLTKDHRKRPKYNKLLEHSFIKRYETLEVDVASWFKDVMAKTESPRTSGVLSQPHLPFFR

Mus musculus [3] = test: Inhibition of anti-CD3 antibody-induced IFNgamma production in Balb/c mouse dosed intravenously 5 mins before anti-CD3 antibody injection and measured 2 hrs post-challenge by ELISA; type: functional, organism-based
Mus musculus [4] = test: Inhibition of anti-CD3 antibody-induced IL4 production in Balb/c mouse dosed intravenously 5 mins before anti-CD3 antibody injection and measured 2 hrs post-challenge by ELISA; type: functional, organism-based

| SMILES | IC50 [2] | inhibition (Mus musculus [1]) | inhibition (Mus musculus [3]) | inhibition (Mus musculus [4]) |
| --- | --- | --- | --- | --- |
| NCc1ccc2[nH]c3nc(N)nc(N4CCCCC4)c3c2c1 | 1000 nM | Active | Active | Active |
| Cc1nc(N2CCOCC2)c2c(n1)[nH]c1ccc(O)cc12 | 1000 nM | Active | Active | Active |
| COc1cc2[nH]c3nc(N)nc(N4CCCCC4)c3c2cc1OC | 1000 nM | Active | Active | Active |
| Cc1nc(N2CCCCC2CO)c2c(n1)[nH]c1ccc(O)cc12 (centres undefined) | 1000 nM | Active | Active | Active |
| Nc1nc(N2CCC(Cc3ccccc3)CC2)c2c(n1)[nH]c1ccc(O)cc12 | 1000 nM | Active | Active | Active |
| Nc1nc(N2CCCCC2)c2c(n1)[nH]c1ccc(Cl)cc12 | 1000 nM | Active | Active | Active |
| CC1CC(C)CN(c2ncnc3[nH]c4ccc(O)cc4c23)C1 (centres undefined) | 1000 nM | Active | Active | Active |
| CC1CCN(c2ncnc3[nH]c4ccc(C(N)=O)cc4c23)CC1 | < 1000 nM | Active | Active | Active |
| NC(=O)c1ccc2[nH]c3ncnc(N4CCC(C(=O)O)CC4)c3c2c1 | < 1000 nM | Active | Active | Active |
| CCN(CC)c1nc(C)nc2[nH]c3ccc(O)cc3c12 | 1000 nM | Active | Active | Active |
| O=C(O)C1CCN(c2ncnc3[nH]c4ccc(O)cc4c23)CC1 | < 1000 nM | Active | Active | Active |
| O=C(O)CCCCCN1CCN(c2ncnc3[nH]c4ccc(O)cc4c23)CC1 | 1000 nM | Active | Active | Active |
| Nc1nc(N2CCCC2)c2c(n1)[nH]c1ccc(O)cc12 | < 1000 nM | Active | Active | Active |
| Nc1nc(NCc2ccccc2)c2c(n1)[nH]c1ccc(O)cc12 | < 1000 nM | Active | Active | Active |
| Oc1ccc2[nH]c3ncnc(NC4CCCC4)c3c2c1 | < 1000 nM | Active | Active | Active |
| NC(=O)c1ccc2[nH]c3ncnc(N4CCCCC4)c3c2c1 | < 1000 nM | Active | Active | Active |
| Cc1nc(N2CCCCC2C)c2c(n1)[nH]c1ccc(O)cc12 (centres undefined) | < 1000 nM | Active | Active | Active |
| COC(=O)c1ccc2[nH]c3nc(N)nc(N4CCCCC4)c3c2c1 | < 1000 nM | Active | Active | Active |
| CCCN(CCC)c1ncnc2[nH]c3ccc(C(N)=O)cc3c12 | < 1000 nM | Active | Active | Active |
| OC[C@H](Cc1ccccc1)Nc1ncnc2[nH]c3ccc(O)cc3c12 | < 1000 nM | Active | Active | Active |
| CC(C)(C)OC(=O)NC1CCN(c2ncnc3[nH]c4ccc(O)cc4c23)CC1 | < 1000 nM | Active | Active | Active |
| Nc1nc(NCCO)c2c(n1)[nH]c1ccc(O)cc12 | < 1000 nM | Active | Active | Active |
| CCC1CCCCN1c1ncnc2[nH]c3ccc(C(N)=O)cc3c12 (centres undefined) | < 1000 nM | Active | Active | Active |
| Nc1nc(N2CCC3(CC2)OCCO3)c2c(n1)[nH]c1ccc(O)cc12 | < 1000 nM | Active | Active | Active |
| NC(=O)c1ccc2[nH]c3ncnc(N4CCC(CCO)CC4)c3c2c1 | < 1000 nM | Active | Active | Active |

Second part, led by results:

| IC50 [2] | SMILES | inhibition (Mus musculus [1]) | inhibition (Mus musculus [3]) | inhibition (Mus musculus [4]) |
| --- | --- | --- | --- | --- |
| < 1000 nM | Nc1nc(N2CCC(O)CC2)c2c(n1)[nH]c1ccc(O)cc12 | Active | Active | Active |
| < 1000 nM | Oc1ccc2[nH]c3ncnc(N4CCC(O)(Cc5ccccc5)CC4)c3c2c1 | Active | Active | Active |
| < 1000 nM | CC1CCCN(c2nc(N)nc3[nH]c4ccc(O)cc4c23)C1 (centres undefined) | Active | Active | Active |
| < 1000 nM | Cc1nc(N2CCC(C)CC2)c2c(n1)[nH]c1ccc(O)cc12 | Active | Active | Active |
| < 1000 nM | Cc1nc(N2CCC(O)CC2)c2c(n1)[nH]c1ccc(O)cc12 | Active | Active | Active |
| < 1000 nM | NC1CCN(c2ncnc3[nH]c4ccc(O)cc4c23)CC1 | Active | Active | Active |
| < 1000 nM | Nc1nc(N2CCCC(O)C2)c2c(n1)[nH]c1ccc(O)cc12 (centres undefined) | Active | Active | Active |
| < 1000 nM | NC(=O)c1ccc2[nH]c3ncnc(NCCO)c3c2c1 | Active | Active | Active |
| < 1000 nM | CC1CCCCN1c1ncnc2[nH]c3ccc(O)cc3c12 (centres undefined) | Active | Active | Active |
| < 1000 nM | CN(c1ncnc2[nH]c3ccc(O)cc3c12)C1CCCCC1 | Active | Active | Active |
| < 1000 nM | CC(C)N(C)c1ncnc2[nH]c3ccc(O)cc3c12 | Active | Active | Active |
| < 1000 nM | COC1CCN(c2ncnc3[nH]c4ccc(O)cc4c23)CC1 | Active | Active | Active |
| < 1000 nM | Nc1nc(N2CCC(Br)CC2)c2c(n1)[nH]c1ccc(O)cc12 | Active | Active | Active |
| < 1000 nM | CN(CCO)c1ncnc2[nH]c3ccc(O)cc3c12 | Active | Active | Active |
| < 1000 nM | Nc1nc(NC2CCCCC2)c2c(n1)[nH]c1ccc(O)cc12 | Active | Active | Active |
| < 1000 nM | CC1CCCN(c2ncnc3[nH]c4ccc(O)cc4c23)C1 (centres undefined) | Active | Active | Active |
| < 1000 nM | CC1CCCN(c2ncnc3[nH]c4ccc(C(N)=O)cc4c23)C1 (centres undefined) | Active | Active | Active |
| < 1000 nM | OCCC1CCCCN1c1ncnc2[nH]c3ccc(O)cc3c12 (centres undefined) | Active | Active | Active |
| < 1000 nM | OC[C@@H]1CCCN1c1ncnc2[nH]c3ccc(O)cc3c12 | Active | Active | Active |
| < 1000 nM | Oc1ccc2[nH]c3ncnc(N4CCNCC4)c3c2c1 | Active | Active | Active |
| < 1000 nM | Oc1ccc2[nH]c3ncnc(N4CCC(O)C4)c3c2c1 (centres undefined) | Active | Active | Active |
| < 1000 nM | NC(=O)c1ccc2[nH]c3ncnc(NC4CCCCCC4)c3c2c1 | Active | Active | Active |
| < 1000 nM | C[C@@H](CO)Nc1ncnc2[nH]c3ccc(O)cc3c12 | Active | Active | Active |
| < 1000 nM | OCCCNc1ncnc2[nH]c3ccc(O)cc3c12 | Active | Active | Active |
| < 1000 nM | NC(=O)C1CCCN(c2ncnc3[nH]c4ccc(O)cc4c23)C1 (centres undefined) | Active | Active | Active |
| < 1000 nM | Oc1ccc2[nH]c3ncnc(N4CCC[C@@H](O)C4)c3c2c1 | Active | Active | Active |
